Experimental data: patent US9725449B2, “Tricyclic compounds as anticancer agents” (BRISTOL-MYERS SQUIBB COMPANY, priority 2015, dated 2017)

Molecular target: BRD4 (Homo sapiens, UniProt O60885)
Assay: Time resolved fluorescence resonance energy transfer (TR-FRET) binding assay, bromodomain BRD4
Details: one of the FRET assays described; read-out: FRET BRD4 IC50

**Q.** How did the IC50 turn out when Cc1nnn(C)c1-c1cnc2c3ccc(NC(=O)C4CC4)nc3n([C@H](c3ccccc3F)C3CCOCC3)c2c1 [Example 276, N-[5-(Dimethyl-1H-1,2,3-triazol-5-yl)-8-[(S)-(2-fluorophenyl)(oxan-4-yl)methyl]-3,8,10-triazatricyclo[7.4.0.0^2,^7]trideca-1(13),2(7),3,5,9,11-hexaen-11-yl]cyclopropanecarboxamide] was run?
**A.** < 10 nM

**Q.** Which IC50 does the source give for Cc1nnn(C)c1-c1cnc2c3ccc(NS(C)(=O)=O)nc3n([C@H](c3ccccc3F)C3CCOCC3)c2c1 [Example 240, N-[5-(Dimethyl-1H-1,2,3-triazol-5-yl)-8-[(S)-(2-fluorophenyl)(oxan-4-yl)methyl]-3,8,10-triazatricyclo[7.4.0.0^2,^7]trideca-1(13),2(7),3,5,9,11-hexaen-11-yl]methanesulfonamide] here?
**A.** < 10 nM

**Q.** Cc1noc(C)c1-c1ccc2c3ncc(-c4c(C)nnn4C)cc3n([C@H](c3ccccc3)C3CCOCC3)c2n1 [Example 147, 11-(Dimethyl-1,2-oxazol-4-yl)-5-(dimethyl-1H-1,2,3-triazol-5-yl)-8-[(S)-oxan-4-yl(phenyl)methyl]-3,8,10-triazatricyclo[7.4.0.0^2,^7]trideca-1(13),2(7),3,5,9,11-hexaene] was tested. Which IC50 did it give?
**A.** < 10 nM

**Q.** [2H]C([2H])([2H])c1nnn(C)c1-c1cnc2c3ccc(N4CC(N5CCS(=O)(=O)CC5)C4)nc3n([C@H](c3ccccc3)C3CCOCC3)c2c1 [Example 186, 4-(1-{5-[4-(^2H3)Methyl-1-methyl-1H-1,2,3-triazol-5-yl]-8-[(S)-oxan-4-yl(phenyl)methyl]-3,8,10-triazatricyclo[7.4.0.0^2,^7]trideca-1(9),2(7),3,5,10,12-hexaen-11-yl}azetidin-3-yl)-1λ^6,4-thiomorpholine-1,1-dione] was tested. Which IC50 did it give?
**A.** < 10 nM

**Q.** How did the IC50 turn out when Cc1nnn(C)c1-c1cnc2c3ccc(N4CCN(S(=O)(=O)N(C)C)CC4)nc3n([C@H](c3ccccc3F)C3CCOCC3)c2c1 [Example 269, 4-[5-(Dimethyl-1H-1,2,3-triazol-5-yl)-8-[(S)-(2-fluorophenyl)(oxan-4-yl)methyl]-3,8,10-triazatricyclo[7.4.0.0^2,^7]trideca-1(13),2(7),3,5,9,11-hexaen-11-yl]-N,N-dimethylpiperazine-1-sulfonamide] was run?
**A.** < 1 nM

**Q.** How did the IC50 turn out when COc1ncc(C(C)(C)O)c2c1c1ncc(-c3c(C)nnn3C)cc1n2[C@H](c1ccccc1)C1CCOCC1 [Example 142, 2-[5-(Dimethyl-1H-1,2,3-triazol-5-yl)-13-methoxy-8-[(S)-oxan-4-yl(phenyl)methyl]-3,8,12-triazatricyclo[7.4.0.0^2,^7]trideca-1(9),2,4,6,10,12-hexaen-10-yl]propan-2-ol] was run?
**A.** < 10 nM

**Q.** [2H]C([2H])([2H])c1nnn(C)c1-c1cnc2c3c(Cl)cnc(Cl)c3n([C@H](c3ccccc3)C3CCOCC3)c2c1 [Example 296, 10,13-Dichloro-5-[4-(^2H3)methyl-1-methyl-1H-1,2,3-triazol-5-yl]-8-[(S)-oxan-4-yl(phenyl)methyl]-3,8,11-triazatricyclo[7.4.0.0^2,^7]trideca-1(9),2(7),3,5,10,12-hexaene] was tested. Which IC50 did it give?
**A.** < 1 nM

**Q.** For CC(=O)c1cc2c(cn1)c1ncc(-c3c(C)noc3C)cc1n2[C@H](c1ccc(F)cc1)C1CCOCC1 [Example 330, 1-[5-(Dimethyl-1,2-oxazol-4-yl)-8-[(S)-(4-fluorophenyl)(oxan-4-yl)methyl]-3,8,12-triazatricyclo[7.4.0.0^2,^7]trideca-1(9),2(7),3,5,10,12-hexaen-11-yl]ethan-1-one], which IC50 is on record?
**A.** < 10 nM

**Q.** How did the IC50 turn out when COc1ncc(C(C)(C)O)c2c1c1ncc(-c3c(C)noc3C)cc1n2[C@H](c1ccccc1)C1CCOCC1 [Example 141, 2-[5-(Dimethyl-1,2-oxazol-4-yl)-13-methoxy-8-[(S)-oxan-4-yl(phenyl)methyl]-3,8,12-triazatricyclo[7.4.0.0^2,^7]trideca-1(9),2,4,6,10,12-hexaen-10-yl]propan-2-ol] was run?
**A.** < 10 nM

**Q.** For COc1ncc(S(C)(=O)=O)c2c1c1ncc(-c3c(C)nnn3C)cc1n2[C@H](c1ccccc1F)C1CCOCC1 [Example 50, 5-(Dimethyl-1H-1,2,3-triazol-5-yl)-8-[(S)-(2-fluorophenyl)(oxan-4-yl)methyl]-10-methanesulfonyl-13-methoxy-3,8,12-triazatricyclo[7.4.0.0^2,^7]trideca-1(13),2(7),3,5,9,11-hexaene], which IC50 is on record?
**A.** < 1 nM

**Q.** Which IC50 does the source give for [2H]C([2H])([2H])c1nnn(C)c1-c1cnc2c3c(OC)ncc(S(C)(=O)=O)c3n(C(c3ncccc3F)C3CCC(F)(F)CC3)c2c1 (centres unmarked) [Example 72, 8-[(4,4-Difluorocyclohexyl)(3-fluoropyridin-2-yl)methyl]-10-methanesulfonyl-13-methoxy-5-[4-(^2H3)methyl-1-methyl-1H-1,2,3-triazol-5-yl]-3,8,12-triazatricyclo[7.4.0.0^2,^7]trideca-1(13),2(7),3,5,9,11-hexaene] here?
**A.** < 10 nM

**Q.** For [2H]C([2H])([2H])c1nnn(C)c1-c1cnc2c3c(OC)ncc(CO)c3n([C@H](c3ccccc3)C3CCOCC3)c2c1 [Example 139, {13-methoxy-5-[4-(^2H3)methyl-1-methyl-1H-1,2,3-triazol-5-yl]-8-[(S)-oxan-4-yl(phenyl)methyl]-3,8,12-triazatricyclo[7.4.0.0^2,^7]trideca-1(9),2,4,6,10,12-hexaen-10-yl}methanol], which IC50 is on record?
**A.** < 10 nM

**Q.** COc1ncc(S(C)(=O)=O)c2c1c1ncc(-c3c(C)noc3C)cc1n2C(c1ccccc1)C1CCC(F)(F)CC1 (single isomer, unassigned) [Example 89, 8-[(4,4-Difluorocyclohexyl)(phenyl)methyl]-5-(dimethyl-1,2-oxazol-4-yl)-10-methanesulfonyl-13-methoxy-3,8,12-triazatricyclo[7.4.0.0^2,^7]trideca-1(13),2(7),3,5,9,11-hexaene] was tested. Which IC50 did it give?
**A.** < 1500 nM

**Q.** With [2H]C([2H])([2H])c1onc(C)c1-c1cnc2c3c(OC)ncc(S(=O)(=O)C([2H])([2H])[2H])c3n(C(c3ncccc3F)C3CCOCC3)c2c1 (centres unmarked) [Example 66, 8-[(3-Fluoropyridin-2-yl)(oxan-4-yl)methyl]-10-(^2H3)methanesulfonyl-13-methoxy-5-[5-(^2H3)methyl-3-methyl-1,2-oxazol-4-yl]-3,8,12-triazatricyclo[7.4.0.0^2,^7]trideca-1(13),2(7),3,5,9,11-hexaene] as the compound, how does the IC50 read?
**A.** < 10 nM

**Q.** How did the IC50 turn out when CNCCN(C)c1ccc2c3ncc(-c4c(C)nnn4C)cc3n([C@H](c3ccccc3F)C3CCOCC3)c2n1 [Example 228, 5-(Dimethyl-1H-1,2,3-triazol-5-yl)-8-[(S)-(2-fluorophenyl)(oxan-4-yl)methyl]-N-methyl-N-[2-(methylamino)ethyl]-3,8,10-triazatricyclo[7.4.0.0^2,^7]trideca-1(13),2(7),3,5,9,11-hexaen-11-amine] was run?
**A.** < 1 nM

**Q.** Cc1nnn(C)c1-c1cnc2c3ccc(NS(C)(=O)=O)nc3n([C@H](c3ccccc3)C3CCOCC3)c2c1 [Example 208, N-[5-(Dimethyl-1H-1,2,3-triazol-5-yl)-8-[(S)-oxan-4-yl(phenyl)methyl]-3,8,10-triazatricyclo[7.4.0.0^2,^7]trideca-1(9),2(7),3,5,10,12-hexaen-11-yl]methanesulfonamide] was tested. Which IC50 did it give?
**A.** < 10 nM

**Q.** [2H]C([2H])([2H])c1nnn(C)c1-c1cnc2c3ccc(-c4c(C([2H])([2H])[2H])nnn4C)nc3n(C(c3ncccc3F)C3CCOCC3)c2c1 (centres unmarked) [Example 248, 8-[(3-Fluoropyridin-2-yl)(oxan-4-yl)methyl]-5,11-bis[4-(^2H3)methyl-1-methyl-1H-1,2,3-triazol-5-yl]-3,8,10-triazatricyclo[7.4.0.0^2,^7]trideca-1(13),2(7),3,5,9,11-hexaene] was tested. Which IC50 did it give?
**A.** < 10 nM

**Q.** Which IC50 does the source give for [2H]C([2H])([2H])c1nnn(C)c1-c1cnc2c3cnc(C(C)(C)O)c(F)c3n([C@H](c3ccccc3)C3CCOCC3)c2c1 [Example 278, 2-{10-Fluoro-5-[4-(^2H3)methyl-1-methyl-1H-1,2,3-triazol-5-yl]-8-[(S)-oxan-4-yl(phenyl)methyl]-3,8,12-triazatricyclo[7.4.0.0^2,^7]trideca-1(13),2(7),3,5,9,11-hexaen-11-yl}propan-2-ol] here?
**A.** < 1 nM

**Q.** Which IC50 does the source give for [2H]C([2H])([2H])c1nnn(C)c1-c1cnc2c3c(OC)ncc(S(C)(=O)=O)c3n([C@H](c3ccccc3)C3CCC(F)(F)CC3)c2c1 [Example 81, 8-[(S)-(4,4-Difluorocyclohexyl)(phenyl)methyl]-10-methanesulfonyl-13-methoxy-5-[4-(^2H3)methyl-1-methyl-1H-1,2,3-triazol-5-yl]-3,8,12-triazatricyclo[7.4.0.0^2,^7]trideca-1(13),2(7),3,5,9,11-hexaene] here?
**A.** < 1 nM

**Q.** For [2H]C([2H])([2H])c1nnn(C)c1-c1cnc2c3ccc(-c4c(C([2H])([2H])[2H])nnn4C)nc3n([C@@H](c3ccccc3)C3CCOCC3)c2c1 [Example 165, 5,11-Bis[4-(^2H3)methyl-1-methyl-1H-1,2,3-triazol-5-yl]-8-[(R)-oxan-4-yl(phenyl)methyl]-3,8,10-triazatricyclo[7.4.0.0^2,^7]trideca-1(9),2(7),3,5,10,12-hexaene], which IC50 is on record?
**A.** < 10 nM

**Q.** For [2H]C([2H])([2H])c1nnn(C)c1-c1cnc2c3c(OCC(F)F)ncc(S(C)(=O)=O)c3n([C@H](c3ccccc3)C3CCOCC3)c2c1 [Example 112, 13-(2,2-Difluoroethoxy)-10-methanesulfonyl-5-[4-(^2H3)methyl-1-methyl-1H-1,2,3-triazol-5-yl]-8-[(S)-oxan-4-yl(phenyl)methyl]-3,8,12-triazatricyclo[7.4.0.0^2,^7]trideca-1(13),2(7),3,5,9,11-hexaene], which IC50 is on record?
**A.** < 1 nM

**Q.** How did the IC50 turn out when [2H]C([2H])([2H])c1nnn(C)c1-c1cnc2c3c(OCC)ncc(S(C)(=O)=O)c3n(C(c3ncccc3F)C3CCC(F)(F)CC3)c2c1 (centres unmarked) [Example 74, 8-[(4,4-Difluorocyclohexyl)(3-fluoropyridin-2-yl)methyl]-13-ethoxy-10-methanesulfonyl-5-[4-(^2H3)methyl-1-methyl-1H-1,2,3-triazol-5-yl]-3,8,12-triazatricyclo[7.4.0.0^2,^7]trideca-1(13),2(7),3,5,9,11-hexaene] was run?
**A.** < 10 nM

**Q.** COc1nccc2c3ncc(-c4c(C)nnn4C)cc3n([C@H](c3ccccc3)C3CCOCC3)c12 [Example 13, 5-(Dimethyl-1H-1,2,3-triazol-5-yl)-10-methoxy-8-[(S)-oxan-4-yl(phenyl)methyl]-3,8,11-triazatricyclo[7.4.0.0^2,^7]trideca-1(13),2(7),3,5,9,11-hexaene] was tested. Which IC50 did it give?
**A.** < 1 nM
